Laboratory results taken from patent publication US20080069809A1, “Compositions and methods for the diagnosis and treatment of cancer” (priority 2006, published 2008).

Experiments:
protein kinase C (PKC) = conditions: Kedei et al 2004; cited from earlier work
KG1a = test: Apoptosis (sub-G1 DNA by FACS) in KG1a leukemic cells; assay type: cell-based; conditions: even at 20 μM PEP005
Experimental: The myeloid leukemic cell lines HL60, NB60, NB4, U937, K562 and KG1a were all grown in RPMI 1640 medium (Life Technologies, Paisley, United Kingdom) supplemented with 10% v/v fetal calf serum (Sear Laboratories International Crawley, United Kingdom), 100 U/mL penicillin, and 100 μg/mL streptomycin (Sigma Aldrich, Poole, United Kingdom) at 37° C. and 5% v/v CO2. AML blasts were isolated from patient bone marrow aspirates and peripheral blood of eight patients at diagnosis or relapse. Patients were not receiving AML therapy at time of sampling. Blasts were isolated by Ficoll density centrifugation and were cultured in serum-free insulin transferrin selenium-positive (ITS+) medium (Life Technologies) containing 300 ng/mL stem cell factor (SCF) and 10 ng/mL interleukin 3 (IL3; R and D Systems, Abingdon, United Kingdom) and antibiotics. […] Normal myeloblasts were isolated from cord blood or adult mobilized peripheral blood. Briefly, CD34^+ cells were indirectly selected from the mononuclear cell preparations using antibody-coated magnetic beads (Miltenyi Biotec, United Kingdom).
To determine the effects of ingenol-3-angelate (PEP005), cells were incubated for up to 5 days with medium alone or PEP005 at a range of concentrations from 0.2 nM to 20 μM. […] Apoptosis and differentiation were assessed after 1 to 5 days.

[1] = test system: EGFP-positive PKC-δ-expressing KG1a cells; test: Apoptosis / viability in KG1a cells transfected with EGFP-PKC-δ; assay type: cell-based
Experimental: (§1) KG1a cells were transiently transfected with EGFP-tagged mouse PKC-δ subcloned into pEGFP-N1 plasmid (available from National Cancer Institute [NCI], Bethesda, Md.) using an Amaxa nucleofection apparatus (Amaxa, Koeln, Germany). Transfection efficiency was approximately 35% as judged by fluorescence-activated cell sorter (FACS) analysis and cells were treated with PEP005 (0.2 μM-20 μM) 24 hours after transfection. Cell viability in EGFP-positive cells was assessed by analysis of cell morphology (forward scatter and side scatter profile) by FACS and loss of viability confirmed in the total cell culture by MTT assay after 3 days. Briefly, 24 hours after transfection, 2×10^4 cells were plated in five wells in 96-well plates and exposed to […] PEP005. At 72 hours, 20 μL MTT substrate at 5 mg/mL was added and plates were incubated at 37° C. After 3 hours, 150 μL media was removed and replated with 200 μL dimethyl sulfoxide (DMSO). Absorbance at an optical density (OD) of 550 nm was read on a Biotech plate reader (Amersham Pharmacia) and corrected for absorbance obtained from blank media controls.

HL60 = test: Differentiation (CD11b expression) in HL60 cells; assay type: cell-based
Experimental: The myeloid leukemic cell lines HL60, NB60, NB4, U937, K562 and KG1a were all grown in RPMI 1640 medium (Life Technologies, Paisley, United Kingdom) supplemented with 10% v/v fetal calf serum (Sear Laboratories International Crawley, United Kingdom), 100 U/mL penicillin, and 100 μg/mL streptomycin (Sigma Aldrich, Poole, United Kingdom) at 37° C. and 5% v/v CO2. AML blasts were isolated from patient bone marrow aspirates and peripheral blood of eight patients at diagnosis or relapse. Patients were not receiving AML therapy at time of sampling. […] Blast purity ranged from 80% to 95%, as assessed by expression of CD34. […]
Cell differentiation was determined by staining of cells with anti-CD11b antibody as a general early marker of myeloid differentiation. In studies with HL60 cells, PEP005-treated and 20 nM phorbol myristate (PMA)-treated (Sigma Aldrich) cells were also assessed for their ability to phagocytose complement-coated yeast, a marker of a fully differentiated myeloid cell, as previously described (Toksoz et al, Leukemia Res 6:491-498, 1982). […] Images were captured with a SPOT2 cameria (Diagnostic Instructions, Sterling Heights, Mich.) and analyzed using Image-Pro 4.0 software (Media Cybernetics, Silver Spring, Md.).

[2] = test system: EGFP-positive KG1a cells transfected with control vector; test: Apoptosis in KG1a cells transfected with control vector pEGFP; assay type: cell-based; conditions: even at 20 μM PEP005, 3 days
Experimental: as §1

C/C=C(/C)C(=O)O[C@H]1C(C)=C[C@]23C(=O)[C@@H](C=C(CO)[C@@H](O)[C@]12O)[C@H]1[C@@H](C[C@H]3C)C1(C)C [PEP005, ingenol-3-angelate]
activation of protein kinase C (protein kinase C (PKC)): potent activator
entry into apoptosis (KG1a): did not enter apoptosis
viability of total cell population by MTT assay ([1]; PEP005, after 3 days): Loss of viability was confirmed
apoptosis (forward and side scatter by FACS) ([1]; PEP005 for 3 days, 24 hours after transfection, doses commensurate with those in HL60, U937 and NB4): resulted in apoptosis
synergy with ATRA in CD11b differentiation response (HL60; 10 nM ATRA and 20 nM PEP005 in combination, 5 days): able to synergize with ATRA
PEP005 concentration with optimal effect, CD11b expression (HL60; treated 5 days): 20 nM
apoptosis (forward and side scatter by FACS) [2]: resistant to PEP005-induced apoptosis
